These are literature values, as cited in patent US20250000823A1, “METHODS AND COMPOSITIONS FOR TREATING CONDITIONS ASSOCIATED WITH CENTRAL HYPOVENTILATION” (APNIMED, INC. (DELAWARE), priority 2021, published 2025).

The test system of this series is patients with OHS. The settings on record: acetazolamide alone.

For the molecule `CC(=O)Nc1nnc(S(N)(=O)=O)s1` [Acetazolamide, N-(5-Sulfamoyl-1,3,4-thiadiazol-2-yl)acetamide], the alveolar ventilation result was “improve alveolar ventilation”.
